Source: ChEMBL document CHEMBL6127057, “Design and synthesis of Thieno[3, 2-b]pyridinone derivatives exhibiting potent activities against Mycobacterium tuberculosis in vivo by targeting Enoyl-ACP reductase” (Eur J Med Chem, 2024)
In brackets after ≈: the same amount, converted by molar mass. Activity calls are given as the source filed them. The rule behind the calls is not given here.

How the values were obtained:
[1] = tested on: Mycobacterium tuberculosis; assay: Antimycobacterial activity against Mycobacterium tuberculosis H37Rv assessed as inhibition of growth by kill kinetic analysis; assay type: functional
[2] = tested on: Mycobacterium tuberculosis; assay: Antimycobacterial activity against marker-free avirulent autoluminescent Mycobacterium tuberculosis H37Ra assessed as inhibition of relative light unit relative to control; assay type: functional
Candida albicans = assay: Antifungal activity against Candida albicans assessed as fungal growth inhibition incubated for 48 hrs; assay type: functional
Staphylococcus aureus = assay: Antibacterial activity against Staphylococcus aureus assessed as bacterial growth inhibition incubated for 24 hrs; assay type: functional
Cryptococcus neoformans = assay: Antifungal activity against Cryptococcus neoformans assessed as fungal growth inhibition incubated for 72 hrs; assay type: functional
Escherichia coli = assay: Antibacterial activity against Escherichia coli assessed as bacterial growth inhibition incubated for 24 hrs; assay type: functional
[3] = tested on: Mycobacterium tuberculosis; assay: Antimycobacterial activity against Mycobacterium tuberculosis H37Rv infected in female BALB/c mouse assessed as reduction in relative light unit in lung at 100 mg/kg, po administered once daily for 5 days; assay type: functional; conditions: time 5 day
[4] = tested on: Mycobacterium tuberculosis; assay: Antimycobacterial activity against Mycobacterium tuberculosis H37Rv infected in female BALB/c mouse assessed as reduction in relative light unit in lung, po administered once daily for 5 days; assay type: functional, organism-based; conditions: dose 30-300 mg/kg, time 5.0 day
[5] = AUC (0 to infinity) in male Sprague-Dawley rat at 100 mg/kg, po measured upto 240 hrs by LC/MS/MS analysis; assay type: ADME, organism-based; conditions: in vivo
[6] = tested on: Mycobacterium tuberculosis; assay: Antimycobacterial activity against Mycobacterium tuberculosis H37Rv infected in female BALB/c mouse assessed as reduction in relative light unit in lung at 300 mg/kg, po administered once daily for 5 days; assay type: functional; conditions: time 5 day
[7] = tested on: Mycobacterium tuberculosis; assay: Antimycobacterial activity against Mycobacterium tuberculosis UAlRv infection model using mouse RAW264.7 cells assessed as inhibition of bacterial growth incubated for 72 hrs; assay type: functional
[8] = biological target: T1, Enoyl-[acyl-carrier-protein] reductase [NADH] (Mycobacterium tuberculosis) (UniProt P9WGR1); assay: Inhibition of C-terminal his-tagged Mycobacterium tuberculosis InhA extracted from Escherichia coli BL21(DE3) cells using trans-2-dodecenoyl-coenzyme A as substrate at 25 microM by UV based analysis
T1 sequence (whole entry): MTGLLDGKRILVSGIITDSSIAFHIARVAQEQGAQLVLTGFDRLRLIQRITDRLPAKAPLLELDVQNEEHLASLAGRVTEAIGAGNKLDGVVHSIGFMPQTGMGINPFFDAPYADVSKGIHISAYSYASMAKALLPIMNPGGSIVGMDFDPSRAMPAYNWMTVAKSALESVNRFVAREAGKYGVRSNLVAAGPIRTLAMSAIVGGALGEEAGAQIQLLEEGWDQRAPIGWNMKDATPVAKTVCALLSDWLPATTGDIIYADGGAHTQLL

[9] = Cmax in male Sprague-Dawley rat at 100 mg/kg, po measured upto 240 hrs by LC/MS/MS analysis; assay type: ADME, organism-based; conditions: in vivo
[10] = tested on: Mycolicibacterium smegmatis; assay: Selectivity ratio of MIC for recombinant Mycobacterium smegmatis transfected with pMV261-Mtb InhA to MIC for recombinant Mycobacterium smegmatis transfected with pMV261; assay type: functional
[11] = tested on: Mycobacterium tuberculosis; assay: Antimycobacterial activity against Mycobacterium tuberculosis H37Rv infected in female BALB/c mouse assessed as reduction in relative light unit in lung at 100 mg/kg, po in presence of Rifampicin administered once daily for 5 days; assay type: functional; conditions: time 5 day
[12] = tested on: Mycolicibacterium smegmatis; assay: Antimycobacterial activity against recombinant Mycobacterium smegmatis transfected with pMV261 assessed as inhibition of bacterial growth at 0.25 to 64 microg/ml incubated for 3 days; assay type: functional; conditions: 72 h, dose 0.25-64 µg/ml, time 3 day
[13] = tested on: Mycolicibacterium smegmatis; assay: Antimycobacterial activity against recombinant Mycobacterium smegmatis transfected with pMV261-Mtb InhA assessed as inhibition of bacterial growth at 0.25 to 64 microg/ml incubated for 3 days; assay type: functional; conditions: 72 h, dose 0.25-64 µg/ml, time 3 day
L02 = assay: Cytotoxicity against human L02 cells incubated for 48 hrs by CCK-8 assay; assay type: toxicity, cell-based; conditions: l02, 48 h
[14] = tested on: Mycobacterium tuberculosis; assay: Antimycobacterial activity against Mycobacterium tuberculosis H37Rv infected in female BALB/c mouse assessed as reduction in relative light unit in lung at 30 mg/kg, po in presence of Rifampicin administered once daily for 5 days; assay type: functional; conditions: time 5 day
[15] = Half life in male Sprague-Dawley rat at 100 mg/kg, po measured upto 240 hrs by LC/MS/MS analysis; assay type: ADME, organism-based; conditions: in vivo
[16] = AUC (0 to infinity) in male Sprague-Dawley rat at 1 mg/kg, iv measured upto 240 hrs by LC/MS/MS analysis; assay type: ADME, organism-based; conditions: in vivo
[17] = tested on: Mycobacterium tuberculosis; assay: Antimycobacterial activity against Mycobacterium tuberculosis H37Rv infected in female BALB/c mouse assessed as reduction in relative light unit in spleen at 300 mg/kg, po administered once daily for 5 days; assay type: functional; conditions: time 5 day
[18] = Tmax in male Sprague-Dawley rat at 100 mg/kg, po measured upto 240 hrs by LC/MS/MS analysis; assay type: ADME, organism-based; conditions: in vivo
[19] = tested on: Mycobacterium tuberculosis; assay: Antimycobacterial activity against wild-type Mycobacterium tuberculosis H37Rv incubated for 4 weeks by MABA assay; assay type: functional; conditions: 672 h
[20] = Toxicity in BALB/c mouse infected with Mycobacterium tuberculosis H37Rv assessed as optimal condition at 300 mg/kg, po administered once daily for 5 days; assay type: organism-based; conditions: in vivo, 120 h, time 5 day
[21] = Half life in male Sprague-Dawley rat at 1 mg/kg, iv measured upto 240 hrs by LC/MS/MS analysis; assay type: ADME, organism-based; conditions: in vivo
[22] = Oral bioavailability in male Sprague-Dawley rat at 100 mg/kg measured upto 240 hrs by LC/MS/MS analysis; assay type: ADME, organism-based; conditions: in vivo

SMILES: CC1(C)CCC(Cc2cc(O)c(-c3ccccc3)c(=O)[nH]2)CC1
- MIC50 [1]: 0.05 µM (≈ 0.0156 µg/mL)

SMILES: O=c1[nH]c2c(Br)csc2c(O)c1-c1cccc(Oc2ccccc2)c1
- MIC90 [2]: 32 µg/mL (≈ 77.2 µM)

SMILES: O=c1[nH]c2c(Br)csc2c(O)c1-c1ccc(F)cc1
- MIC90 [2]: 2 µg/mL (≈ 5.88 µM)

SMILES: O=c1[nH]c2c(Br)csc2c(O)c1-c1ccc(Cl)cc1
- MIC90 [2]: > 64 µg/mL

SMILES: O=c1[nH]c2c(Br)csc2c(O)c1-c1ccc(Br)cc1
- MIC90 [2]: 16 µg/mL (≈ 39.9 µM)

SMILES: O=c1[nH]c2c(Br)csc2c(O)c1-c1ccc(C(F)(F)F)cc1
- MIC90 [2]: 16 µg/mL (≈ 41 µM)

SMILES: O=c1[nH]c2c(Br)csc2c(O)c1-c1cccc(Br)c1
- MIC90 [2]: 16 µg/mL (≈ 39.9 µM)

SMILES: O=c1[nH]c2c(Br)csc2c(O)c1-c1cccc(OC(F)(F)F)c1
- MIC90 [2]: > 64 µg/mL

SMILES: O=c1[nH]c2c(Br)csc2c(O)c1-c1ccc2ccccc2c1
- MIC90 [2]: 16 µg/mL (≈ 43 µM)

SMILES: Cc1ccccc1-c1c(O)c2scc(Br)c2[nH]c1=O
- MIC80 (Candida albicans): > 64 µg/mL
- MIC99 (Staphylococcus aureus): > 64 µg/mL
- MIC80 (Cryptococcus neoformans): > 64 µg/mL
- MIC99 (Escherichia coli): > 64 µg/mL
- MIC90 [2]: 0.5 µg/mL (≈ 1.49 µM)

SMILES: Cc1ccc(-c2c(O)c3scc(Br)c3[nH]c2=O)cc1
- MIC90 [2]: 32 µg/mL (≈ 95.2 µM)

SMILES: Cc1cccc(-c2c(O)c3scc(Br)c3[nH]c2=O)c1
- MIC80 (Candida albicans): > 64 µg/mL
- MIC99 (Staphylococcus aureus): > 64 µg/mL
- Activity [3]: 4.93 log10RLU
- Activity [4]: Dose-Dependent Effect
- AUC [5]: 19700 µM·h
- Activity [6]: 0.64 log10RLU
- MIC90 [7]: 1 µg/mL (≈ 2.97 µM)
- inhibition [8]: Active
- Cmax [9]: 283 µM
- Selectivity ratio [10]: 2
- Activity [11]: 5.31 log10RLU
- MIC [12]: 1 µg/mL
- MIC [13]: 4 µg/mL
- Activity (L02): Toxic
- Activity [14]: 0.29 log10RLU
- half-life [15]: 48 h
- MIC80 (Cryptococcus neoformans): > 64 µg/mL
- AUC [16]: 1200 µM·h
- Activity [17]: 0.37 log10RLU
- Tmax [18]: 6 h
- MIC [19]: 0.5 µg/mL (≈ 1.49 µM)
- MIC99 (Escherichia coli): > 64 µg/mL
- MIC90 [2]: 0.5 µg/mL (≈ 1.49 µM)
- Activity [20]: Non-Toxic
- half-life [21]: 35.6 h
- bioavailability [22]: 16.4%

SMILES: O=c1[nH]c2c(Br)csc2c(O)c1-c1cccc(Cl)c1
- MIC99 (Staphylococcus aureus): > 64 µg/mL
- MIC90 [7]: 1 µg/mL (≈ 2.8 µM)
- inhibition [8]: Active
- Activity (L02): Toxic
- MIC99 (Escherichia coli): > 64 µg/mL
- MIC90 [2]: 0.5 µg/mL (≈ 1.4 µM)

SMILES: COc1ccc(-c2c(O)c3scc(Br)c3[nH]c2=O)cc1
- MIC90 [2]: 16 µg/mL (≈ 45.4 µM)

SMILES: C[C@@H]1[C@H](O)[C@@H](C)/C=C/C=C/C=C/C=C/C=C/C=C/C=C/[C@H](O[C@@H]2O[C@H](C)[C@@H](O)[C@H](N)[C@@H]2O)C[C@@H]2O[C@](O)(C[C@@H](O)C[C@@H](O)[C@H](O)CC[C@@H](O)C[C@@H](O)CC(=O)O[C@H]1C)C[C@H](O)[C@H]2C(=O)O [AMPHOTERICIN B]
- MIC80 (Candida albicans): 0.125 µg/mL (≈ 0.135 µM)
- MIC80 (Cryptococcus neoformans): 0.5 µg/mL (≈ 0.541 µM)

SMILES: CO[C@H]1/C=C/O[C@@]2(C)Oc3c(C)c(O)c4c(O)c(c(/C=N/N5CCN(C)CC5)c(O)c4c3C2=O)NC(=O)/C(C)=C\C=C\[C@H](C)[C@H](O)[C@@H](C)[C@@H](O)[C@@H](C)[C@H](OC(C)=O)[C@@H]1C [RIFAMPIN]
- MIC [19]: 0.125 µg/mL (≈ 0.152 µM)
- MIC90 [2]: 0.25 µg/mL (≈ 0.304 µM)

SMILES: O=c1[nH]c2c(Br)csc2c(O)c1-c1ccc(Cl)cc1F
- MIC90 [2]: 16 µg/mL (≈ 42.7 µM)

SMILES: NNC(=O)c1ccncc1 [ISONIAZID]
- MIC50 [1]: 0.33 µM (≈ 0.0453 µg/mL)
- MIC [19]: 0.03 µg/mL (≈ 0.219 µM)

SMILES: Cc1csc2c(O)c(-c3ccccc3)c(=O)[nH]c12
- MIC90 [2]: 4 µg/mL (≈ 15.5 µM)

SMILES: CC(=O)Oc1c(-c2ccccc2)c(=O)n(C(C)=O)c2c(Br)csc12
- MIC90 [2]: 4 µg/mL (≈ 9.85 µM)

SMILES: O=c1[nH]c2c(Br)csc2c(O)c1-c1ccc(Cl)cc1Cl
- MIC90 [2]: > 64 µg/mL

SMILES: COc1cccc(-c2c(O)c3scc(Br)c3[nH]c2=O)c1
- MIC90 [2]: 8 µg/mL (≈ 22.7 µM)

SMILES: O=c1[nH]c2c(Br)csc2c(O)c1-c1cccc(F)c1
- MIC80 (Candida albicans): > 64 µg/mL
- MIC99 (Staphylococcus aureus): > 64 µg/mL
- MIC80 (Cryptococcus neoformans): > 64 µg/mL
- MIC99 (Escherichia coli): > 64 µg/mL
- MIC90 [2]: 0.5 µg/mL (≈ 1.47 µM)

SMILES: O=c1[nH]c2c(Br)csc2c(O)c1-c1ccccc1Cl
- MIC90 [2]: 1 µg/mL (≈ 2.8 µM)

SMILES: Cc1ccc(C)c(-c2c(O)c3scc(Br)c3[nH]c2=O)c1
- MIC90 [2]: 32 µg/mL (≈ 91.4 µM)

SMILES: O=c1[nH]c2c(Br)csc2c(O)c1-c1ccc([N+](=O)[O-])cc1
- MIC90 [2]: 32 µg/mL (≈ 87.2 µM)

SMILES: O=c1[nH]c2c(Br)csc2c(O)c1-c1cccc([N+](=O)[O-])c1
- MIC90 [2]: > 64 µg/mL

SMILES: CC1(C)S[C@@H]2[C@H](NC(=O)[C@H](N)c3ccc(O)cc3)C(=O)N2[C@H]1C(=O)O [AMOXICILLIN]
- MIC99 (Staphylococcus aureus): 0.5 µg/mL (≈ 1.37 µM)
- MIC99 (Escherichia coli): 0.05 µg/mL (≈ 0.137 µM)

SMILES: N#Cc1cccc(-c2c(O)c3scc(Br)c3[nH]c2=O)c1
- MIC90 [2]: > 64 µg/mL

SMILES: O=c1[nH]c2c(Br)csc2c(O)c1-c1cccs1
- MIC90 [2]: 4 µg/mL (≈ 12.2 µM)

SMILES: N#Cc1ccc(-c2c(O)c3scc(Br)c3[nH]c2=O)cc1
- MIC90 [2]: 32 µg/mL (≈ 92.2 µM)

SMILES: O=c1[nH]c2c(Br)csc2c(O)c1-c1ccccc1
- MIC99 (Staphylococcus aureus): > 64 µg/mL
- MIC99 (Escherichia coli): > 64 µg/mL
- MIC90 [2]: 0.5 µg/mL (≈ 1.55 µM)

SMILES: CC(C)(C)c1ccc(-c2c(O)c3scc(Br)c3[nH]c2=O)cc1
- MIC90 [2]: > 64 µg/mL

SMILES: O=c1[nH]c2c(Br)csc2c(O)c1-c1ccccc1F
- MIC80 (Candida albicans): > 64 µg/mL
- MIC99 (Staphylococcus aureus): > 64 µg/mL
- MIC80 (Cryptococcus neoformans): > 64 µg/mL
- MIC99 (Escherichia coli): > 64 µg/mL
- MIC90 [2]: 0.5 µg/mL (≈ 1.47 µM)

SMILES: O=c1[nH]c2c(Br)csc2c(O)c1-c1ccco1
- MIC90 [2]: 8 µg/mL (≈ 25.6 µM)
